We go through 2 molecules from patent US11647752B2 (priority 2020, dated 2023).

Each structure is given as a SMILES string. Several values for one entry are separate records, joined by “and”; a condition that tells them apart may be missing. Equal values may be shown once. Read-outs that look alike come from different tables or passages of the source.

Assay [1] has as its system Ralstonia solanacearum in tobacco roots. The format is in vivo. The following applies: for Amount of Ralstonia solanacearum in the roots: 12 h of inoculation.
Assay [2] has as its system Ralstonia solanacearum (tobacco bacterial wilt pathogen HF-1-1). It is filed as cell-based. The following applies: 50 μL per hole, 37° C., 12 h.
Assay [3] concerns Ralstonia solanacearum (pathogen HF-1-1). It is filed as cell-based. The note with it: NaHS 0, 200, 400, 600, 800 mg/L in liquid culture, 12 h, 37° C.

Turning to `NO` [H2S inhibitor, hydroxylamine, reference compound], the “Amount of Ralstonia solanacearum in the roots” value in assay [1] (N- (10 mL 0.8 mmol hydroxylamine)) is reported as 1.38 ×10^4 CFU/g.
In the case of `[Na+].[SH-]` [NaHS], the “Diameter of inhibition zone” value was 11.20±0.72 mm and 11.20 mm in assay [2] (NaHS 200 mg/L); 14.61±0.93 mm and 14.61 mm in assay [2] (NaHS 400 mg/L); 19.43±0.41 mm and 19.43 mm in assay [2] (NaHS 600 mg/L); 21.21±1.22 mm and 21.21 mm in assay [2] (NaHS 800 mg/L). Also, the “Biomass of the pathogen HF-1-1 (OD600)” value in assay [3] was “decreased with the increase of its concentration”. Also, the “Amount of Ralstonia solanacearum in the roots” value is on record as 1.36 ×10^4 CFU/g in assay [1] (N200 (NaHS 200 mg/L)), 1.39 ×10^4 CFU/g in assay [1] (N400 (NaHS 400 mg/L)), 1.40 ×10^4 CFU/g in assay [1] (N600 (NaHS 600 mg/L)) and 1.37 ×10^4 CFU/g in assay [1] (N800 (NaHS 800 mg/L)). Moreover, the “Content of Ralstonia solanacearum in the tobacco roots compared with CK and N- groups” value in assay [1] (N200-N800 (NaHS 200-800 mg/L), 24 h and 36 h) is “relatively lower”. Moreover, in assay [1] (NaHS 800 mg/L, 36 hours), the “Decrease of number of Ralstonia solanacearum colonized on tobacco roots compared with control group” value is recorded as 98.32%.
